According to patent publication US8178517B2, “6-methylvitamin D3 analogs and their uses” (Wisconsin Alumni Research Foundation, priority 2009, dated 2012):
pEC50, pKi: −log10 of the molar value.

How the values were obtained:
HL-60 cells = experiment: HL-60 differentiation (nitro blue tetrazolium reduction); assay type: cell-based, human; conditions: for pEC50: Homo sapiens, HL-60 cells, differentiation into monocytes, FIG. 2, read-out: EC50, HL-60 cell differentiation
Procedure: Serial dilutions were prepared so that a range of drug concentrations could be tested without changing the final concentration of ethanol (≦0.2%) present in the cell cultures.
Human promyelocytic leukemia (HL60) cells were grown in RPMI-1640 medium containing 10% fetal bovine serum. The cells were incubated at 37° C. in the presence of 5% CO2.
HL60 cells were plated at 1.2×10^5 cells/ml. Eighteen hours after plating, cells in duplicate were treated with drug. Four days later, the cells were harvested and a nitro blue tetrazolium reduction assay was performed (Collins et al., 1979; J. Exp. Med. 149:969-974). The percentage of differentiated cells was determined by counting a total of 200 cells and recording the number that contained intracellular black-blue formazan deposits. Verification of differentiation to monocytic cells was determined by measuring phagocytic activity (data not shown).

[1] = tested on: vitamin D-deficient rats on a low calcium diet; experiment: Bone calcium mobilization (serum calcium) in vitamin D-deficient rats; assay type: in vivo, rat; conditions: for serum calcium (bone calcium mobilization): 7020 pmol/day ip for 4 consecutive days, rats on 0.02% Ca diet
Procedure: (§1) Intestinal Calcium Transport and Bone Calcium Mobilization
(§2) Male, weanling Sprague-Dawley rats were placed on Diet 11 (0.47% Ca) diet+AEK oil for one week followed by Diet 11 (0.02% Ca)+AEK oil for 3 weeks. The rats were then switched to a diet containing 0.47% Ca for one week followed by two weeks on a diet containing 0.02% Ca. Dose administration began during the last week on 0.02% calcium diet. Four consecutive ip doses were given approximately 24 hours apart. Twenty-four hours after the last dose, blood was collected from the severed neck and the concentration of serum calcium determined as a measure of bone calcium mobilization. The first 10 cm of the intestine was also collected for intestinal calcium transport analysis using the everted gut sac method.

[2] = biological target: T1, full-length recombinant rat vitamin D receptor (Rattus norvegicus, UniProt P13053); experiment: biochemical
T1 sequence (P13053 1-423): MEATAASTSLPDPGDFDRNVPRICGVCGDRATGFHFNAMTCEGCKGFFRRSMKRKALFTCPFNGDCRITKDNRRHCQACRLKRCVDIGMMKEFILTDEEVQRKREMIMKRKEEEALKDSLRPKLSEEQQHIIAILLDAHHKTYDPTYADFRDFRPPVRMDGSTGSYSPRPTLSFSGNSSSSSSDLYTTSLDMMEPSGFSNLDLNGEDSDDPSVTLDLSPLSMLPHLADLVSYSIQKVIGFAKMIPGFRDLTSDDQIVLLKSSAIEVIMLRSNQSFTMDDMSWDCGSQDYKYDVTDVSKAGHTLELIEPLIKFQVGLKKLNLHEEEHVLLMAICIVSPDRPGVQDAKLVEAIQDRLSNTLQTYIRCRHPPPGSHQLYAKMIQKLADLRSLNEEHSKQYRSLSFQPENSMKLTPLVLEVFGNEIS
Description: Vitamin D Receptor Binding
Full-length recombinant rat receptor was expressed in E. coli BL21 (DE3) Codon Plus RIL cells and purified to homogeneity using two different column chromatography systems. The first system was a nickel affinity resin that utilizes the C-terminal histidine tag on this protein. The protein that was eluted from this resin was further purified using ion exchange chromatography (S-Sepharose Fast Flow). Aliquots of the purified protein were quick frozen in liquid nitrogen and stored at −80° C. until use. For use in binding assays, the protein was diluted in TEDK50 (50 mM Tris, 1.5 mM EDTA, pH7.4, 5 mM DTT, 150 mM KCl) with 0.1% Chaps detergent.
Radiolabeled and unlabeled ligands were added to 100 mcl of the diluted protein at a final ethanol concentration of ≦10%, mixed and incubated overnight on ice to reach binding equilibrium. The following day, 100 mcl of hydroxylapatite slurry (50%) was added to each tube and mixed at 10-minute intervals for 30 minutes. The hydroxylapaptite was collected by centrifugation and then washed three times with Tris-EDTA buffer (50 mM Tris, 1.5 mM EDTA, pH 7.4) containing 0.5% Titron X-100. […] Total binding was determined from the tubes containing only radiolabeled ligand.

[3] = tested on: vitamin D-deficient rats on a low calcium diet; experiment: Intestinal calcium transport, everted gut sac method; assay type: in vivo, rat; conditions: for intestinal calcium transport activity (everted gut sac): 7020 pmol/day for 4 consecutive days
Procedure: as §1, §2

[4] = tested on: 24-hydroxylase (24Ohase) gene promoter; experiment: In vitro transcription assay (24-hydroxylase promoter luciferase reporter in ROS 17/2.8 bone cells); assay type: cell-based; conditions: for pEC50: ROS 17/2.8 bone cells, luciferase reporter, FIG. 3, read-out: EC50, transcriptional activity in bone cells (24-hydroxylase gene)
Procedure: In Vitro Transcription Assay
Transcription activity was measured in ROS 17/2.8 (bone) cells that were stably transfected with a 24-hydroxylase (24Ohase) gene promoter upstream of a luciferase reporter gene (Arbour et al., 1998). Cells were given a range of doses. Sixteen hours after dosing the cells were harvested and luciferase activities were measured using a luminometer.
RLU=relative luciferase units.

[5] = Isomerization to previtamin form / storage stability; assay type: physicochemical; conditions: can be stored by a prolonged time in a freezer
[6] = relative to 1α,25-dihydroxyvitamin D3
[7] = relative to 1,25(OH)2D3, in vivo, rats

Compound | pEC50 (HL-60 cells) | times less activity than 1α,25-dihydroxyvitamin D3 in HL-60 cell differentiation (HL-60 cells; [6]) [times] | serum calcium (bone calcium mobilization) ([1]; FIG. 4) [mg/dL] | times less potent than 1,25(OH)2D3 in mobilizing calcium from bone [1, 7] | pKi [2] | intestinal calcium transport activity (everted gut sac) ([3]; rats, FIG. 5) | dose dependence of intestinal calcium transport ([3]; across doses, FIG. 5) | times less potent than 1,25(OH)2D3 in stimulating intestinal calcium transport [3, 7] | pEC50 [4] | times less transcriptional activity in bone cells than 1α,25-dihydroxyvitamin D3 [4, 6] [times] | stability (isomerization to previtamin D form) [5] | effect on serum calcium levels across dosages ([1]; all dosages tested, FIG. 4)
C=C1/C(=C(C)\C=C2/CCC[C@@]3(C)C2CCC3[C@H](C)CCCC(C)(C)O)C[C@@H](O)C[C@@H]1O (stereo partly drawn) [Me-Cvit, 1α,25-dihydroxy-6-methylvitamin D3] | 7.10 | ~20 | 4.3 | about 400 times | 10.70 | 4.8 | promotes intestinal calcium transport in a dose dependent manner | greater than 1,000 times | 8.40 | ~10 | very easily isomerizes to its previtamin D form 5 | 
C=C1C(=CC=C2CCCC3(C)C2CCC3C(C)CCCC(C)(C)O)CC(O)CC1O (stereo not drawn) [1,25(OH)2D3, 1α,25-dihydroxyvitamin D3, reference compound] | 8.70 |  | 7.6 |  |  | 8.3 |  |  | 9.70 |  |  | increased serum calcium levels at all dosages
